From PubChem BioAssay AID248 (DTP/NCI, 2004)
Where “and” joins values, the source holds several entries; their conditions need not be identical. Identical values can stand only once. Toxic doses and inconclusive results are not listed.

Test system: L1210 leukemia ip in BDF1 mice, survival T/C
Test: NCI In Vivo Anticancer Drug Screen. Data for tumor model L1210 Leukemia (intraperitoneal) in B6D2F1 (BDF1) mice
Conditions: endpoint: mean survival time, higher = longer survival
Summary of the method: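 Transplanted-tumor mice were given test agent; controls received vehicle only. Survival readings from the two groups were divided (treated over control).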

[1] = dose: 400.0 mg/kg/injection, schedule: Q01DX001 (ip), vehicle: saline
[2] = dose: 100.0 mg/kg/injection, schedule: Q01DX001 (ip), vehicle: saline
[3] = dose: 200.0 mg/kg/injection, schedule: Q01DX001 (ip), vehicle: saline
[4] = dose: 100.0 mg/kg/injection, schedule: Q01DX001 (ip), vehicle: carboxymethylcellulose (CMC)
[5] = dose: 200.0 mg/kg/injection, schedule: Q01DX001 (ip), vehicle: carboxymethylcellulose (CMC)
[6] = dose: 400.0 mg/kg/injection, schedule: Q01DX001 (ip), vehicle: carboxymethylcellulose (CMC)
[7] = dose: 100.0 mg/kg/injection, schedule: Q04DX002 (ip), vehicle: saline with Tween-80
[8] = dose: 200.0 mg/kg/injection, schedule: Q04DX002 (ip), vehicle: saline with Tween-80

## O=C(CCCCC(=O)Nc1ccc(C2=NCCN2)cc1)Nc1ccc(C2=NCCN2)cc1
dose: 11.0 mg/kg/injection, schedule: Q01DX009 (ip), vehicle: saline
  T/C: 123 % of control
dose: 75.0 mg/kg/injection, schedule: Q04DX003 (ip), vehicle: saline
  T/C: 123 % of control
dose: 90.0 mg/kg/injection, schedule: Q01DX009 (ip), vehicle: saline
  T/C: 256 % of control
dose: 150.0 mg/kg/injection, schedule: Q04DX003 (ip), vehicle: saline
  T/C: 123 % of control
dose: 175.0 mg/kg/injection, schedule: Q01DX001 (ip), vehicle: saline
  T/C: 108 % of control
dose: 175.0 mg/kg/injection, schedule: Q01DX009 (ip), vehicle: saline
  T/C: 212 % of control
dose: 265.0 mg/kg/injection, schedule: Q01DX009 (ip), vehicle: saline
  T/C: 214 % of control
dose: 266.0 mg/kg/injection, schedule: Q01DX001 (ip), vehicle: saline
  T/C: 156 % of control
dose: 300.0 mg/kg/injection, schedule: Q04DX003 (ip), vehicle: saline
  T/C: 154 % of control
[1]
  T/C: 186 % of control
dose: 500.0 mg/kg/injection, schedule: Q01DX001 (ip), vehicle: carboxymethylcellulose (CMC)
  T/C: 179 % of control
dose: 600.0 mg/kg/injection, schedule: Q01DX001 (ip), vehicle: saline
  T/C: 214 % of control
dose: 600.0 mg/kg/injection, schedule: Q04DX003 (ip), vehicle: saline
  T/C: 197 % of control
dose: 1000.0 mg/kg/injection, schedule: Q01DX001 (ip), vehicle: carboxymethylcellulose (CMC)
  T/C: 273 % of control

## CC(=O)N=c1sccn1Cc1ccccc1
dose: 75.0 mg/kg/injection, schedule: Q01DX001 (ip), vehicle: carboxymethylcellulose (CMC)
  T/C: 95 % of control
dose: 150.0 mg/kg/injection, schedule: Q01DX001 (ip), vehicle: carboxymethylcellulose (CMC)
  T/C: 98 % of control
dose: 300.0 mg/kg/injection, schedule: Q01DX001 (ip), vehicle: carboxymethylcellulose (CMC)
  T/C: 98 % of control

## CC(C)OC(=O)Nc1ccc(Br)cc1
dose: 100.0 mg/kg/injection, schedule: Q04DX002 (ip), vehicle: Klucel (hydroxypropylcellulose) (HPC)
  T/C: 88 % of control
dose: 200.0 mg/kg/injection, schedule: Q04DX002 (ip), vehicle: Klucel (hydroxypropylcellulose) (HPC)
  T/C: 95 % of control

## CSc1nc(Cl)cc(Sc2nc(N)nc3nc[nH]c23)n1
dose: 100.0 mg/kg/injection, schedule: Q01DX Z (ip), vehicle: methylcellulose (MC)
  T/C: 110 % of control

## CCOC(=O)N/N=C/c1ccc([N+](=O)[O-])cc1
[2]
  T/C: 94 % of control
[3]
  T/C: 98 % of control
[1]
  T/C: 102 % of control

## Nc1nc(N)c(-c2ccc(Cl)cc2)c(COc2cccc(NC(=O)c3ccc(NC(=O)CBr)cc3)c2)n1
[2]
  T/C: 91 % of control
[3]
  T/C: 91 % of control
[1]
  T/C: 104 % of control

## CSCCC(N)C(=O)O (stereo unspecified)
dose: 40.0 mg/kg/injection, schedule: Q01DX009 (ip), vehicle: saline
  T/C: 96 % of control
dose: 80.0 mg/kg/injection, schedule: Q01DX009 (ip), vehicle: saline
  T/C: 107 % of control
[4]
  T/C: 92 % of control
dose: 100.0 mg/kg/injection, schedule: Q04DX003 (ip), vehicle: Klucel (hydroxypropylcellulose) (HPC)
  T/C: 104 % of control
dose: 160.0 mg/kg/injection, schedule: Q01DX009 (ip), vehicle: saline
  T/C: 102 % of control
[5]
  T/C: 95 % of control
dose: 200.0 mg/kg/injection, schedule: Q04DX003 (ip), vehicle: Klucel (hydroxypropylcellulose) (HPC)
  T/C: 98 % of control
dose: 320.0 mg/kg/injection, schedule: Q01DX009 (ip), vehicle: saline
  T/C: 98 % of control
[6]
  T/C: 103 % of control
dose: 400.0 mg/kg/injection, schedule: Q04DX003 (ip), vehicle: Klucel (hydroxypropylcellulose) (HPC)
  T/C: 102 % of control

## CO/C(C)=C(/C#N)C(N)=S
[7]
  T/C: 93 % of control
[8]
  T/C: 97 % of control
dose: 400.0 mg/kg/injection, schedule: Q04DX002 (ip), vehicle: saline with Tween-80
  T/C: 101 % of control

## CC(C)P(=O)(CCP(=O)(c1ccccc1)c1ccccc1)c1ccccc1 (stereo unspecified)
dose: 50.0 mg/kg/injection, schedule: Q04DX002 (ip), vehicle: saline with Tween-80
  T/C: 106 % of control
[7]
  T/C: 100 % of control
[8]
  T/C: 87 % of control

## COc1ccc(Nc2nc(N)nc(N)c2N)cc1
dose: 100.0 mg/kg/injection, schedule: Q01DX Z (ip), vehicle: saline
  T/C: 87 % of control

## O=C(O)c1cc(N=Nc2ncn[nH]2)ccc1O
dose: 87.5 mg/kg/injection, schedule: Q04DX003 (ip), vehicle: Klucel (hydroxypropylcellulose) (HPC)
  T/C: 96 % of control
dose: 175.0 mg/kg/injection, schedule: Q04DX003 (ip), vehicle: Klucel (hydroxypropylcellulose) (HPC)
  T/C: 97 % of control
dose: 350.0 mg/kg/injection, schedule: Q04DX003 (ip), vehicle: Klucel (hydroxypropylcellulose) (HPC)
  T/C: 100 % of control

## CCS(=O)(=O)c1ncc2cnccn12
dose: 50.0 mg/kg/injection, schedule: Q01DX009 (ip), vehicle: water
  T/C: 98 % of control
dose: 100.0 mg/kg/injection, schedule: Q01DX009 (ip), vehicle: water
  T/C: 98 % of control and 101 % of control
dose: 100.0 mg/kg/injection, schedule: Q04DX003 (ip), vehicle: water
  T/C: 93 % of control
dose: 200.0 mg/kg/injection, schedule: Q01DX009 (ip), vehicle: water
  T/C: 105 % of control and 110 % of control
dose: 200.0 mg/kg/injection, schedule: Q04DX003 (ip), vehicle: water
  T/C: 95 % of control

## c1ccc(C23c4ccccc4C2c2ccccc23)nc1 (stereo unspecified)
dose: 12.5 mg/kg/injection, schedule: Q01DX009 (ip), vehicle: gum acacia
  T/C: 104 % of control
dose: 25.0 mg/kg/injection, schedule: Q01DX009 (ip), vehicle: gum acacia
  T/C: 100 % of control
dose: 50.0 mg/kg/injection, schedule: Q01DX009 (ip), vehicle: gum acacia
  T/C: 100 % of control
dose: 100.0 mg/kg/injection, schedule: Q04DX003 (ip), vehicle: gum acacia
  T/C: 97 % of control
dose: 200.0 mg/kg/injection, schedule: Q04DX003 (ip), vehicle: gum acacia
  T/C: 97 % of control
dose: 400.0 mg/kg/injection, schedule: Q04DX003 (ip), vehicle: gum acacia
  T/C: 104 % of control

## COc1ccccc1OCCN1Cc2ccccc2C1
dose: 100.0 mg/kg/injection, schedule: Q04DX003 (ip), vehicle: saline with Tween-80
  T/C: 96 % of control
dose: 200.0 mg/kg/injection, schedule: Q04DX003 (ip), vehicle: saline with Tween-80
  T/C: 92 % of control

## COc1cccc2cc[nH]c12
dose: 50.0 mg/kg/injection, schedule: Q01DX001 (ip), vehicle: carboxymethylcellulose (CMC)
  T/C: 105 % of control
[4]
  T/C: 100 % of control
[5]
  T/C: 112 % of control
[6]
  T/C: 100 % of control

## C1CNC(CN2CCCC2)C1 (stereo unspecified)
dose: 75.0 mg/kg/injection, schedule: Q01DX001 (ip), vehicle: saline
  T/C: 93 % of control
dose: 150.0 mg/kg/injection, schedule: Q01DX001 (ip), vehicle: saline
  T/C: 101 % of control
dose: 300.0 mg/kg/injection, schedule: Q01DX001 (ip), vehicle: saline
  T/C: 103 % of control
